Data as given in publication PMC10692362 (Acta Pharmaceutica Sinica. B, 2023).
Peptide text beside a SMILES is read from it. * marks the point of attachment. Cbz = O=C(OCc1ccccc1)*

Test system: ERα
Assay: Immunoblot analysis of ERα degradation across ERα^WT and ERα^MUT BC cell lines
Format: cell-based, human
Conditions: 10 μmol/L MG-132 alone

CC(C)C[C@@H](C=O)NC(=O)[C@H](CC(C)C)NC(=O)[C@H](CC(C)C)NC(=O)OCc1ccccc1 [MG-132, reference compound] (Cbz-Leu-Leu-Leu-aldehyde)
Effect on ERα degradation, alone: no effect on ERα degradation
